Test [1] in a line: Cytotoxicity against human LCC-6 cells expressing P-glycoprotein after 72 hrs. Type of test: functional, cell-based. As to conditions: LCC-6, 72 h.
Test [2] has as its system MCF7. Put plainly: Cytotoxicity against human MCF7 cells expressing P-glycoprotein after 72 hrs. Type of test: functional, cell-based. To be noted: MCF7, 72 h.
Test [3] can be described thus: Cytotoxicity against P-glycoprotein deficient wild type human LCC-6 cells after 72 hrs. As to conditions: LCC-6, 72 h. Type of test: functional, cell-based.
Test [4] in a line: Resistance factor, ratio of IC50 for human LCC-6 cells expressing P-glycoprotein to IC50 for P-glycoprotein deficient wild type human LCC-6 cells. Type of test: functional. More on the design: reference not given here.
Another test concerns HT-29. Put plainly: Cytotoxicity against human HT-29 cells after 72 hrs. Type of test: functional, cell-based. As to conditions: HT-29, 72 h.
Test [5] concerns MCF7. Put plainly: Resistance factor, ratio of IC50 for human MCF7 cells expressing P-glycoprotein to IC50 for P-glycoprotein deficient wild type human MCF7 cells. Format: functional.
The subject of test [6] is MCF7. Put plainly: Cytotoxicity against P-glycoprotein deficient wild type human MCF7 cells after 72 hrs. Format: functional, cell-based. To be noted: MCF7, 72 h.
In another test the test system is NCI-H460. Put plainly: Cytotoxicity against human H460 cells after 72 hrs. Type of test: functional, cell-based. To be noted: NCI-H460, 72 h.

SMILES strings stand for the structures.

For orientation: IC50 means the midpoint of a concentration-inhibition curve. With `CC(=O)O[C@@]12CO[C@@H]1C[C@H](O)[C@@]1(C)C(=O)[C@H](OC(=O)N(C)C)C3=C(C)[C@@H](OC(=O)[C@H](O)[C@@H](NC(=O)OC(C)(C)C)C(F)F)C[C@@](O)([C@@H](OC(=O)c4cccc(N=[N+]=[N-])c4)[C@H]21)C3(C)C`, the IC50 in test [1] is 1.69 nM; with MCF7 [2], 1.44 nM; in test [3] it was 0.29 nM; with HT-29, 0.4 nM; with MCF7 [6] it was 0.37 nM; in the test on NCI-H460 it was 0.52 nM. Also, the Ratio was determined as 5.8 in test [4] and 3.9 in the test on MCF7 [5].

Consider `CC(=O)O[C@H]1C(=O)[C@@]2(C)[C@H]([C@H](OC(=O)c3cccc(Cl)c3)[C@]3(O)C[C@H](OC(=O)[C@H](O)[C@@H](NC(=O)OC(C)(C)C)C(F)(F)F)C(C)=C1C3(C)C)[C@]1(OC(C)=O)CO[C@@H]1C[C@@H]2O`, for which the IC50 amounted to 4.96 nM in test [1]; 5.04 nM with MCF7 [2]; 0.22 nM in test [3]; 0.85 nM in the test on HT-29; 0.4 nM with MCF7 [6]; 0.5 nM in the test with NCI-H460. Also, the figures for the Ratio (in test [4]; with MCF7 [5]) were 23 and 13, respectively.

Turning to `CC(=O)O[C@@]12CO[C@@H]1C[C@H](O)[C@@]1(C)C(=O)[C@H](OC(=O)N(C)C)C3=C(C)[C@@H](OC(=O)[C@H](O)[C@@H](NC(=O)OC(C)(C)C)C(F)F)C[C@@](O)([C@@H](OC(=O)c4cccc(Cl)c4)[C@H]21)C3(C)C`, the IC50 in test [1] is 3.87 nM; in the test on MCF7 [2], 2.96 nM; in test [3] it was 0.21 nM; in the test with HT-29, 0.58 nM; in the test on MCF7 [6], 0.31 nM; in the test with NCI-H460 it was 0.36 nM. The Ratio in test [4] is listed as 18; in the test with MCF7 [5], 9.5.

As to `COc1cccc(C(=O)O[C@H]2[C@@H]3[C@]4(OC(C)=O)CO[C@@H]4C[C@H](O)[C@@]3(C)C(=O)[C@H](OC(C)=O)C3=C(C)[C@@H](OC(=O)[C@H](O)[C@@H](NC(=O)OC(C)(C)C)C(F)F)C[C@]2(O)C3(C)C)c1`, the IC50 in test [1] came to 5.57 nM; in the test with MCF7 [2] it was 4.16 nM; in test [3], 0.26 nM; in the test on HT-29, 0.52 nM; in the test with MCF7 [6] it was 0.34 nM; with NCI-H460 it was 0.38 nM. The Ratio in test [4] is given as 21; in the test on MCF7 [5], 12.

`CC(=O)O[C@H]1C(=O)[C@@]2(C)[C@H]([C@H](OC(=O)c3cccc(F)c3)[C@]3(O)C[C@H](OC(=O)[C@H](O)[C@@H](NC(=O)OC(C)(C)C)C(F)(F)F)C(C)=C1C3(C)C)[C@]1(OC(C)=O)CO[C@@H]1C[C@@H]2O`: the IC50 amounted to 5.93 nM in test [1]; 5.58 nM with MCF7 [2]; 0.38 nM in test [3]; 1.11 nM in the test on HT-29; 0.45 nM with MCF7 [6]; 0.49 nM with NCI-H460. For the same molecule, the Ratio in test [4] stood at 16; with MCF7 [5] it was 13.

As for `COC(=O)O[C@H]1C(=O)[C@@]2(C)[C@H]([C@H](OC(=O)c3cccc(N=[N+]=[N-])c3)[C@]3(O)C[C@H](OC(=O)[C@H](O)[C@@H](NC(=O)OC(C)(C)C)C(F)(F)F)C(C)=C1C3(C)C)[C@]1(OC(C)=O)CO[C@@H]1C[C@@H]2O`, the IC50 came out at 4 nM in test [1]; 2.92 nM in the test on MCF7 [2]; 1.09 nM in test [3]; 0.4 nM in the test on HT-29; 0.47 nM in the test with MCF7 [6]; 0.2 nM in the test with NCI-H460. In addition, the Ratio in test [4] came out at 3.7; in the test on MCF7 [5], 6.2.

`CCC(=O)O[C@H]1C(=O)[C@@]2(C)[C@H]([C@H](OC(=O)c3cccc(N=[N+]=[N-])c3)[C@]3(O)C[C@H](OC(=O)[C@H](O)[C@@H](NC(=O)OC(C)(C)C)C(F)(F)F)C(C)=C1C3(C)C)[C@]1(OC(C)=O)CO[C@@H]1C[C@@H]2O`: the IC50 amounted to 2.56 nM in test [1]; 1.61 nM in the test with MCF7 [2]; 1.09 nM in test [3]; 0.4 nM in the test on HT-29; 0.38 nM with MCF7 [6]; 0.2 nM with NCI-H460. Further, the figures for the Ratio (in test [4]; in the test on MCF7 [5]) were 2.3 and 4.2, respectively.

For `COc1cccc(C(=O)O[C@H]2[C@@H]3[C@]4(OC(C)=O)CO[C@@H]4C[C@H](O)[C@@]3(C)C(=O)[C@H](OC(=O)N(C)C)C3=C(C)[C@@H](OC(=O)[C@H](O)[C@@H](NC(=O)OC(C)(C)C)C(F)(F)F)C[C@]2(O)C3(C)C)c1`, the IC50 came out at 4.48 nM in test [1]; 1.84 nM in the test on MCF7 [2]; 0.28 nM in test [3]; 0.68 nM with HT-29; 0.57 nM in the test with MCF7 [6]; 0.35 nM with NCI-H460. In addition, the Ratio in test [4] is 16; in the test with MCF7 [5], 3.2.

Turning to `CC(=O)O[C@@]12CO[C@@H]1C[C@H](O)[C@@]1(C)C(=O)[C@H](OC(=O)N(C)C)C3=C(C)[C@@H](OC(=O)[C@H](O)[C@@H](NC(=O)OC(C)(C)C)C(F)F)C[C@@](O)([C@@H](OC(=O)c4cccc(F)c4)[C@H]21)C3(C)C`, the IC50 was found to be 10.6 nM in test [1]; 8.13 nM in the test on MCF7 [2]; 0.69 nM in test [3]; 0.35 nM in the test on HT-29; 0.52 nM with MCF7 [6]; 0.2 nM in the test on NCI-H460. Further, the Ratio was determined as 15 in test [4] and 16 in the test on MCF7 [5].

Take `CC(=O)O[C@@]12CO[C@@H]1C[C@H](O)[C@@]1(C)C(=O)[C@H](OC(=O)N(C)C)C3=C(C)[C@@H](OC(=O)[C@H](O)[C@@H](NC(=O)OC(C)(C)C)C(F)(F)F)C[C@@](O)([C@@H](OC(=O)c4cccc(F)c4)[C@H]21)C3(C)C`: the IC50 in test [1] came out at 5.57 nM; in the test on MCF7 [2], 2.64 nM; in test [3], 0.32 nM; in the test with HT-29 it was 0.76 nM; in the test on MCF7 [6], 0.32 nM; in the test on NCI-H460, 0.5 nM. The Ratio in test [4] is 17; with MCF7 [5], 8.3.

Regarding `CC(=O)O[C@H]1C(=O)[C@@]2(C)[C@H]([C@H](OC(=O)c3cccc(F)c3)[C@]3(O)C[C@H](OC(=O)[C@H](O)[C@@H](NC(=O)OC(C)(C)C)C(F)F)C(C)=C1C3(C)C)[C@]1(OC(C)=O)CO[C@@H]1C[C@@H]2O`, the IC50 in test [1] worked out at 10 nM; in the test on MCF7 [2], 5.33 nM; in test [3], 0.52 nM; with HT-29 it was 0.35 nM; in the test with MCF7 [6] it was 0.44 nM; with NCI-H460, 0.2 nM. Moreover, the Ratio in test [4] came to 19; in the test on MCF7 [5] it was 13.

Take `CC(=O)O[C@H]1C(=O)[C@@]2(C)[C@H]([C@H](OC(=O)c3cccc(N=[N+]=[N-])c3)[C@]3(O)C[C@H](OC(=O)[C@H](O)[C@@H](NC(=O)OC(C)(C)C)C(F)F)C(C)=C1C3(C)C)[C@]1(OC(C)=O)CO[C@@H]1C[C@@H]2O`: the IC50 was 1.57 nM in test [1]; 1.68 nM in the test with MCF7 [2]; 0.22 nM in test [3]; 0.57 nM with HT-29; 0.32 nM in the test with MCF7 [6]; 0.48 nM with NCI-H460. For the same molecule, the Ratio amounted to 7.1 in test [4] and 5.3 with MCF7 [5].

For the molecule `CCC(=O)O[C@H]1C(=O)[C@@]2(C)[C@H]([C@H](OC(=O)c3cccc(OC)c3)[C@]3(O)C[C@H](OC(=O)[C@H](O)[C@@H](NC(=O)OC(C)(C)C)C(F)F)C(C)=C1C3(C)C)[C@]1(OC(C)=O)CO[C@@H]1C[C@@H]2O`, the IC50 worked out at 4.05 nM in the test with MCF7 [2]; 0.69 nM in test [3]; 0.59 nM in the test on HT-29; 1.14 nM with MCF7 [6]; 0.4 nM in the test with NCI-H460.

In the case of `CC(=O)O[C@@]12CO[C@@H]1C[C@H](O)[C@@]1(C)C(=O)[C@H](OC(=O)N(C)C)C3=C(C)[C@@H](OC(=O)[C@H](O)[C@@H](NC(=O)OC(C)(C)C)C(F)(F)F)C[C@@](O)([C@@H](OC(=O)c4cccc(N=[N+]=[N-])c4)[C@H]21)C3(C)C`, the IC50 turned out to be 3.52 nM in test [1]; 2.61 nM in the test on MCF7 [2]; 1.27 nM in test [3]; 0.5 nM with HT-29; 0.47 nM in the test on MCF7 [6]; 0.3 nM in the test with NCI-H460. In addition, the Ratio in test [4] was determined as 2.8; with MCF7 [5] it was 5.6.

In the case of `COc1cccc(C(=O)O[C@H]2[C@@H]3[C@]4(OC(C)=O)CO[C@@H]4C[C@H](O)[C@@]3(C)C(=O)[C@H](OC(C)=O)C3=C(C)[C@@H](OC(=O)[C@H](O)[C@@H](NC(=O)OC(C)(C)C)C(F)(F)F)C[C@]2(O)C3(C)C)c1`, the half-inhibitory concentration (IC50) in test [1] turned out to be 3.99 nM; with MCF7 [2], 8.8 nM; in test [3] it was 0.33 nM; in the test with HT-29 it was 0.69 nM; with MCF7 [6] it was 0.32 nM; in the test with NCI-H460 it was 0.38 nM. For the same molecule, the Ratio in test [4] is given as 12; with MCF7 [5] it was 28.

As for `COC(=O)O[C@H]1C(=O)[C@@]2(C)[C@H]([C@H](OC(=O)c3cccc(OC)c3)[C@]3(O)C[C@H](OC(=O)[C@H](O)[C@H](C=C(F)F)NC(=O)OC(C)(C)C)C(C)=C1C3(C)C)[C@]1(OC(C)=O)CO[C@@H]1C[C@@H]2O`, the results for the IC50 in the test on MCF7 [2] and in the test on MCF7 [6] were 0.5 nM and 0.078 nM, respectively. Further, in the test on MCF7 [5], the Ratio is listed as 6.4.

Regarding `COC(=O)O[C@H]1C(=O)[C@@]2(C)[C@H]([C@H](OC(=O)c3cccc(F)c3)[C@]3(O)C[C@H](OC(=O)[C@H](O)[C@@H](NC(=O)OC(C)(C)C)C(F)F)C(C)=C1C3(C)C)[C@]1(OC(C)=O)CO[C@@H]1C[C@@H]2O`, the IC50 was 12.6 nM in test [1]; 11.4 nM with MCF7 [2]; 0.86 nM in test [3]; 0.43 nM with HT-29; 0.59 nM in the test on MCF7 [6]; 0.3 nM with NCI-H460. The values for the Ratio (in test [4]; in the test on MCF7 [5]) were 15 and 19, respectively.

For `COc1cccc(C(=O)O[C@H]2[C@@H]3[C@]4(OC(C)=O)CO[C@@H]4C[C@H](O)[C@@]3(C)C(=O)[C@H](OC(=O)C3CC3)C3=C(C)[C@@H](OC(=O)[C@H](O)[C@H](C=C(F)F)NC(=O)OC(C)(C)C)C[C@]2(O)C3(C)C)c1`, the results for the IC50 with MCF7 [2] and in the test on MCF7 [6] were 0.48 nM and 0.092 nM, respectively. The Ratio in the test on MCF7 [5] is 5.2.

These data come from ChEMBL document CHEMBL1152321, “Recent advances in the chemistry and biology of new generation taxoids” (J Nat Prod, 2009).
